Experimental data taken from article PMC5820588, “Isolation and Biological Evaluation of Prenylated Flavonoids from Maclura pomifera” (Evidence-based Complementary and Alternative Medicine : eCAM, 2018).

Key:
[1] = target: T1, recombinant human monoamine oxidase-A (Homo sapiens, UniProt P21397); assay: MAO-A inhibition, kynuramine deamination assay; assay type: biochemical; details: kynuramine 80 μM, pH 7.4, 37°C; mean ±SD of triplicate
T1 construct: purchased BD Biosciences (Bedford, MA, USA)
T1 sequence (P21397 1-527): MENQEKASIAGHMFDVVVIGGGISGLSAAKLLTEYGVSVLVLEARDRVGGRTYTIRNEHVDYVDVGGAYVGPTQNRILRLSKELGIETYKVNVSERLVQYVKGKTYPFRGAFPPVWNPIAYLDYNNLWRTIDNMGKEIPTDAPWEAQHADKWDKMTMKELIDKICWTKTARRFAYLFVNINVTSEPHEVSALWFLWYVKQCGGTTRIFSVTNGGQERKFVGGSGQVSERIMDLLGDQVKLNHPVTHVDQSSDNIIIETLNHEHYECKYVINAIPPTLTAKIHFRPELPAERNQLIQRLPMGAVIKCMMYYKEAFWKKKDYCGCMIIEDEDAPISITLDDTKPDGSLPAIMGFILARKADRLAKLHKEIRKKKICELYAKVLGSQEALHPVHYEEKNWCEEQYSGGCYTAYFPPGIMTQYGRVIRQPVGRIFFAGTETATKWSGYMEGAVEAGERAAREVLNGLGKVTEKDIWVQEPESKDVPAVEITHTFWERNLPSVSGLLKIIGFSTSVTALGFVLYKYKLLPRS
Protocol: (§1) The inhibitory effects of the chemical components of M. pomifera (L.) on MAO-A and MAO-B were determined via the kynuramine deamination assay, where it was adapted for 96-well plates as described earlier. A fixed concentration of the substrate and varying concentrations of the inhibitor were used to determine the IC50 value at the point where 50% inhibition of the catalytic activity of the enzyme occurred. For MAO-A, the substrate (kynuramine) concentration of 80 μM was chosen, since the KM value of substrate binding reported previously was approximately 40 μM [23]. […] Similarly, for MAO-B, a substrate (kynuramine) concentration of 50 μM was chosen. The assay was performed with the addition of the inhibitor. Inhibition was calculated as percent of the product formation compared to the corresponding control (enzyme-substrate reaction) without the inhibitors. The enzyme reactions were carried out in 0.1 M potassium phosphate buffer at pH 7.4. Reaction mixtures contained 5 μg/mL of MAO-A (18.75 μL in buffer) and 10 μg/mL of MAO-B (18.75 μL in buffer). The compounds were dissolved in DMSO and diluted in buffer. The total reaction mixture volume was 75 μL, yielding a final DMSO concentration of 1.0% in the reaction mixture. The reaction mixtures were preincubated for 10 min at 37°C followed by the addition of MAO-A/MAO-B to initiate the reactions. The reaction mixtures were incubated for 20 min at 37°C and stopped by the addition of 28 μL of 2 N NaOH. The formation of 4-hydroxyquinoline was determined fluorometrically by Spectra Max M5 fluorescence plate reader (Molecular Devices, Sunnyvale, CA, USA) with an excitation and emission wavelength of 320 nm and 380 nm, respectively, using the Soft Max Pro program. Appropriate controls were set up to check the interference with the fluorescence measurements. […] The determination of IC50 values for inhibition of MAO-A and MAO-B by the M. pomifera (L.) compounds was performed using a fixed concentration of the substrate and varying the concentration of the inhibitor.
(§2) The compounds isolated from M. pomifera (L.) fruits were tested for their inhibitory effect against recombinant human MAO isoforms (MAO-A and MAO-B) in vitro. The enzymatic activity of MAO-A and MAO -B was determined via a fluorescence based method.

[2] = target: CB1 receptor (Homo sapiens, UniProt P21554); assay: Cannabinoid receptor assay, CB1 (CP-55940 as control); assay type: binding
Chain of CB1 receptor (P21554 whole entry): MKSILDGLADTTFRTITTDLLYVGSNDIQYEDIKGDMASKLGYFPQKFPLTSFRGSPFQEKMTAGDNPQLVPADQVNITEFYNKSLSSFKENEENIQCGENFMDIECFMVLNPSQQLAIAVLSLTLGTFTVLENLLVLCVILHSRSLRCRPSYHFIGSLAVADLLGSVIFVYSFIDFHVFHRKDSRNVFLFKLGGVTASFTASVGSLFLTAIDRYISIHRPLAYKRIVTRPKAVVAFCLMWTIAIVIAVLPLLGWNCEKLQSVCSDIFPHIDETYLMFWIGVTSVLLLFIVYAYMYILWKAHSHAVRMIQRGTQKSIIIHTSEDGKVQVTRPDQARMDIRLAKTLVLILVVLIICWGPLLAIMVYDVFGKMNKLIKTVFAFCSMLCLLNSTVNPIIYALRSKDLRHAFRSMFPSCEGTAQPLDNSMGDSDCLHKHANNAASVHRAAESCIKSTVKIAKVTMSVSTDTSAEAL
Protocol: (§3) The affinities of the total extracts and the isolated compounds towards cannabinoid and opioid receptors were assessed according to the published method.
(§4) The affinities of the total extracts and the isolated compounds towards cannabinoid and opioid receptors were assessed using CP-55940 and Naloxone as controls for cannabinoid and opioid receptors assays, respectively.

[3] = target: T2, recombinant human monoamine oxidase-B (Homo sapiens, UniProt P27338); assay: MAO-B inhibition, kynuramine deamination assay; assay type: biochemical; details: for IC50: kynuramine 50 μM, pH 7.4, 37°C, mean ±SD of triplicate; for SI index MAO-A/B: ratio of MAO-A IC50 to MAO-B IC50; for Selectivity of MAO inhibition: MAO-B versus MAO-A
T2 construct: purchased BD Biosciences (Bedford, MA, USA)
T2 sequence (P27338 1-520): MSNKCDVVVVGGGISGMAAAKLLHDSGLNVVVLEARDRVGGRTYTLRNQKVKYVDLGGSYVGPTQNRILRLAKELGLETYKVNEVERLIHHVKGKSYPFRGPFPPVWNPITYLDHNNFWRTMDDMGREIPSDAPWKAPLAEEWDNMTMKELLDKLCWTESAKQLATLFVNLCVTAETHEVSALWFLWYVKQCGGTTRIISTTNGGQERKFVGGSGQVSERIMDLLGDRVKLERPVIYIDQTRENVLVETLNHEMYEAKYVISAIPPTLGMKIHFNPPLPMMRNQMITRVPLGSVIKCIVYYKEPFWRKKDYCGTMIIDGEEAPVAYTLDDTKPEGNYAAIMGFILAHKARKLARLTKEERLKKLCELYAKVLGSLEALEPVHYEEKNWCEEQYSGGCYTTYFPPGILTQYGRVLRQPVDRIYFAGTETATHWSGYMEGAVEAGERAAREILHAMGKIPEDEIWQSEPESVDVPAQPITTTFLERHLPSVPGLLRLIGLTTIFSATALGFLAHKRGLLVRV
Protocol: as §1, §2

[4] = target: CB2 receptor (Homo sapiens, UniProt P34972); assay: Cannabinoid receptor assay, CB2 (CP-55940 as control); assay type: binding
Chain of CB2 receptor (P34972 whole entry): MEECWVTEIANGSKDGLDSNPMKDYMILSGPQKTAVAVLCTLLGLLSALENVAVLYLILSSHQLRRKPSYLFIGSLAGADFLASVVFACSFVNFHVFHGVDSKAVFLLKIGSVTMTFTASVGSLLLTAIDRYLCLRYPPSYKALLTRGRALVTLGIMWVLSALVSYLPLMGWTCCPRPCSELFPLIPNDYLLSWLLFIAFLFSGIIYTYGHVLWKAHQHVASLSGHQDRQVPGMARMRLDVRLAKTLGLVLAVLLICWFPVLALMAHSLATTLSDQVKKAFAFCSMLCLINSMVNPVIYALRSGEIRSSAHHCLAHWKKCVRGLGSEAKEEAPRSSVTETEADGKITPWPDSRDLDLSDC
Protocol: as §3, §4

[5] = target: κ opioid receptor (Homo sapiens, UniProt P41145); assay: Opioid receptor assay, κ (Naloxone as control); assay type: binding; details: negative value read as possibly allosteric
Chain of κ opioid receptor (P41145 whole entry): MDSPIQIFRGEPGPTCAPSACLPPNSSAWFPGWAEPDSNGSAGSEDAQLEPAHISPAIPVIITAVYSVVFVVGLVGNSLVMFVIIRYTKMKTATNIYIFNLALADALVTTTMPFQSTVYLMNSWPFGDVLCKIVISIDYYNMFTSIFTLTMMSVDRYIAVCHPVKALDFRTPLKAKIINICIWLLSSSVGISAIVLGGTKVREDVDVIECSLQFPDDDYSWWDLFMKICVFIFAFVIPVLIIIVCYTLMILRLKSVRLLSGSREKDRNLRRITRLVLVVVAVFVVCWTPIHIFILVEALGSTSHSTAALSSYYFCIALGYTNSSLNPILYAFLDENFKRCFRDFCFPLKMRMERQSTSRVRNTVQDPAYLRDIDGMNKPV
Protocol: as §3, §4

[6] = target: μ opioid receptor (Homo sapiens, UniProt P35372); assay: Opioid receptor assay, μ (Naloxone as control); assay type: binding; details: negative value read as possibly allosteric
Chain of μ opioid receptor (P35372 whole entry): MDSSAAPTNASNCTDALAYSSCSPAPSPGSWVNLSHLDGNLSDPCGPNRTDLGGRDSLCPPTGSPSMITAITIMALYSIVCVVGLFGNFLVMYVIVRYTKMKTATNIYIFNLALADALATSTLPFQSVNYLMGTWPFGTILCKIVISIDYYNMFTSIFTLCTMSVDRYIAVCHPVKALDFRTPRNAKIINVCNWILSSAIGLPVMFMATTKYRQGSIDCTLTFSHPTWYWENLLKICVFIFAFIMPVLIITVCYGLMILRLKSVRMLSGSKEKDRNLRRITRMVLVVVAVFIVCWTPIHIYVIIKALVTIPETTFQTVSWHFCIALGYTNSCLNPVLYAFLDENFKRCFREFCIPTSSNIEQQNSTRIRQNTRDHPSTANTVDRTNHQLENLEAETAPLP
Protocol: as §3, §4

Row | Compound | IC50 [1] [µM] | IC50 [2] [µM] | Ki [2] [µM] | CB1 % displacement ([2]; 10 μM) [%] | CB1 % displacement ([2]; concentration not given) [%] | IC50 [3] [µM] | IC50 [4] [µM] | Ki [4] [µM] | CB2 % displacement ([4]; 10 μM) [%] | CB2 % displacement ([4]; concentration not given) [%] | κ opioid receptor % displacement [5] [%] | μ opioid receptor % displacement [6] [%] | SI index MAO-A/B [3] | Selectivity of MAO inhibition [3]
1 | COC(Cc1c2c(c(O)c3c(=O)c(-c4ccc(O)c(O)c4)coc13)C=CC(C)(C)O2)C(C)(C)O (stereo not drawn) [Kazosajin I, 3-(3,4-Dihydroxyphenyl)-5-hydroxy-10-(3-hydroxy-2-methoxy-3-methylbutyl)-8,8-dimethylpyrano[3,2-g]chromen-4(8H)-one] | 74.3 ± 3.44 | – | – | – | 60.5 | 11.6 ± 1.39 | – | – | – | – | −88.4 | −27.2 | 6.413 | –
2 | C=C(C)C(O)C(=O)c1c2c(c3occ(-c4ccc(O)c(O)c4)c(=O)c3c1O)C=CC(C)(C)O2 (stereo not drawn) [Kazosajin II, 3-(3,4-Dihydroxyphenyl)-5-hydroxy-6-(2-hydroxy-3-methylbut-3-enoyl)-8,8-dimethylpyrano[2,3-f]chromen-4(8H)-one] | 72 ± 3.72 | – | – | – | 47.9 | 4.28 ± 0.67 | – | – | – | 42.3 | – | – | 16.829 | selective inhibition of MAO-B
3 | CC(C)=CCc1c2c(c3occ(-c4ccc(O)c(O)c4)c(=O)c3c1O)C=CC(C)(C)O2 [Pomiferin (V), pomiferin] | > 100 | 2.11 | 1.05 | 107.2 | 107.2 | > 100 | 1.32 | – | 66.0 | 66.0 | – | – | – | –

Second part, the compound after the results:

Row | IC50 [1] [µM] | IC50 [2] [µM] | Ki [2] [µM] | CB1 % displacement ([2]; 10 μM) [%] | CB1 % displacement ([2]; concentration not given) [%] | IC50 [3] [µM] | IC50 [4] [µM] | Ki [4] [µM] | CB2 % displacement ([4]; 10 μM) [%] | CB2 % displacement ([4]; concentration not given) [%] | κ opioid receptor % displacement [5] [%] | μ opioid receptor % displacement [6] [%] | SI index MAO-A/B [3] | Selectivity of MAO inhibition [3] | Compound
4 | > 100 | 3.86 | 1.93 | 93.9 | 93.9 | > 100 | 7.65 | 3.82 | 52.7 | 52.7 | – | – | – | – | CC(C)=CCc1c2c(c3occ(-c4ccc(O)cc4)c(=O)c3c1O)C=CC(C)(C)O2 [Osajin (VIII), osajin]
5 | > 100 | 1.67 | – | 111.3 | 111.3 | 5.69 ± 0.38 | 4.44 | 2.22 | 77.6 | 77.57 | – | – | – | selective inhibition of MAO-B | CC(C)=CCc1c2c(c(O)c3c(=O)c(-c4ccc(O)cc4)coc13)C=CC(C)(C)O2 [Warangalone (VII), warangalone]
6 | 71.2 ± 2.61 | – | – | – | – | 17.7 ± 1.06 | – | – | – | – | – | – | 4.032 | – | COC(c1c2c(c(O)c3c(=O)c(-c4ccc(O)c(O)c4)coc13)C=CC(C)(C)O2)C1OC1(C)C (stereo not drawn) [Kazosajin IV, 3-(3,4-Dihydroxyphenyl)-10-((3,3-dimethyloxiran-2-yl)(methoxy)methyl)-5-hydroxy-8,8-dimethylpyrano[3,2-g]chromen-4(8H)-one]
7 | > 100 | – | – | – | – | 7.16 ± 1.15 | – | – | – | – | – | – | – | selective inhibition of MAO-B | CC1(C)C=Cc2c(c3c(c4c(=O)c(-c5ccc(O)cc5)coc24)OC(C)(C)C(O)C3)O1 (stereo not drawn) [Kazosajin III, 11-Hydroxy-7-(4-hydroxyphenyl)-2,2,10,10-tetramethyl-11,12-dihydro-2H-dipyrano[2,3-f: 2′,3′-h]chromen-8(10H)-one]
8 | 46 ± 4.48 | 8.92 | 4.46 | 86.7 | – | 1.91 ± 0.32 | – | – | – | – | – | – | 24.073 | selective inhibition of MAO-B | CC(C)=CCc1c2c(c(O)c3c(=O)c(-c4ccc(O)c(O)c4)coc13)C=CC(C)(C)O2 [Auriculasin (VI), auriculasin]
